Experimental findings from ChEMBL document CHEMBL3414448, “Advances in the discovery of novel antimicrobials targeting the assembly of bacterial cell division protein FtsZ” (Eur J Med Chem, 2015) are described below.

Usually MIC stands for the lowest concentration that inhibits growth of the organism. A lower MIC goes with inhibition by little substance. A word on the IC50: it is the concentration at which inhibition is half-maximal. As usually defined, the half-life is the time in which the quantity being followed falls by half. A lower half-life goes with fast loss. Usually GI50 stands for the concentration giving 50% growth inhibition. For orientation: Kd means the equilibrium constant for the complex coming apart. Higher therefore signals lower affinity.

The subject of data set [1] is Staphylococcus. Put plainly: Antimicrobial activity against Staphylococcus. The data set is classed as functional.
In data set [2] the test system is Bacillus subtilis. Put plainly: Antimicrobial activity against Bacillus subtilis. The data set is classed as functional.
Data set [3] has as its target T1, Cell division protein FtsZ (Escherichia coli K-12, UniProt P0A9A6).
T1 sequence (P0A9A6 whole entry): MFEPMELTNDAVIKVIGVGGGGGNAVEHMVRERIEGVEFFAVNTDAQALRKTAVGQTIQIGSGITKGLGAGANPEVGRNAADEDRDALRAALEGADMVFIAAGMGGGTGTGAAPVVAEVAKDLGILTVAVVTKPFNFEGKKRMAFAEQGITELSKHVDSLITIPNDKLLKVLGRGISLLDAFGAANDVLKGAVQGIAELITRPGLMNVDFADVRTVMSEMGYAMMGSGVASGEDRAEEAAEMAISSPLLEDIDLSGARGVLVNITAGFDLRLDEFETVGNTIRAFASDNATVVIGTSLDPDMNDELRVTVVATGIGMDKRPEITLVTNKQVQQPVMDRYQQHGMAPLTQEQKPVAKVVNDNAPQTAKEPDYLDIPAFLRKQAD
The data set is described as follows: Inhibition of Escherichia coli FtsZ GTPase activity.

In data set [4] the test system is Staphylococcus aureus. The data set is described as follows: Antimicrobial activity against Staphylococcus aureus. In kind it is functional.
The nature of data set [5]: Inhibition of FtsZ (unknown origin) assessed as reduction in enzyme GTPase activity.
Data set [6] relates to Escherichia coli. Put plainly: Antimicrobial activity against Escherichia coli. In kind it is functional.
A short description of data set [7]: Half life in 100% filtered mouse serum. The data set is classed as ADME.
Data set [8] can be described thus: Half life in staphylococcal growth media.
Data set [9] concerns the target T2, Cell division protein FtsZ (Bacillus subtilis (strain 168), UniProt P17865).
T2 sequence (P17865 whole entry): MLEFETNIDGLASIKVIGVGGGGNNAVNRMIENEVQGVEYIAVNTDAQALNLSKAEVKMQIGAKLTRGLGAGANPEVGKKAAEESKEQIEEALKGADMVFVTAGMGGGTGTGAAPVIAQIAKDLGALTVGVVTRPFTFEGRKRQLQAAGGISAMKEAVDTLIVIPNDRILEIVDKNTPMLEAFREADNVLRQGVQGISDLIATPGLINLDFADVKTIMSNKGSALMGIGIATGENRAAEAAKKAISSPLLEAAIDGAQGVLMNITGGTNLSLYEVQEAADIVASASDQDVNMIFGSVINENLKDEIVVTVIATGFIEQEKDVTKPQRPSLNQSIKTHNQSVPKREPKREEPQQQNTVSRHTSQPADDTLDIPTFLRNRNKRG
The data set is described as follows: Binding affinity to Bacillus subtilis FtsZ.

Data set [10] deals with HeLa. The data set is described as follows: Cytotoxicity against human HeLa cells. In kind it is cell-based.
Data set [11] concerns Staphylococcus. Put plainly: Antimicrobial activity against Staphylococcus relative to PC190723. The data set is classed as functional.
Data set [12] relates to Acinetobacter baumannii. Put plainly: Antimicrobial activity against multidrug-resistant Acinetobacter baumannii 12159796. In kind it is functional.
Data set [13] can be described thus: Selectivity index, ratio of IC50 for human HeLa cells to MIC for Staphylococcus aureus MR12160636.
Data set [14] relates to Pseudomonas aeruginosa. Put plainly: Antimicrobial activity against Pseudomonas aeruginosa ATCC 27853. In kind it is functional.
Data set [15] deals with Escherichia coli. Put plainly: Antimicrobial activity against Escherichia coli ATCC 35218. In kind it is functional.
Data set [16] has as its system Bacillus subtilis. Put plainly: Antimicrobial activity against Bacillus subtilis 168. In kind it is functional.
Data set [17] concerns Streptococcus pneumoniae. Put plainly: Antimicrobial activity against Streptococcus pneumoniae ATCC 49619. In kind it is functional.
Data set [18] deals with Enterococcus faecalis. Put plainly: Antimicrobial activity against Enterococcus faecalis ATCC 29212. In kind it is functional.
Data set [19] has as its system Klebsiella pneumoniae. Put plainly: Antimicrobial activity against ESBL producing Klebsiella pneumoniae ATCC 700603. In kind it is functional.
The subject of data set [20] is Enterobacter cloacae. The data set is described as follows: Antimicrobial activity against multidrug-resistant Enterobacter cloacae 12161389. The data set is classed as functional.
The test system of data set [21] is Enterococcus faecium. Put plainly: Antimicrobial activity against ampicillin-resistant and levofloxacin-resistant Enterococcus faecium 12160560. The data set is classed as functional.
For data set [22], the system named is Staphylococcus aureus. The data set is described as follows: Antimicrobial activity against methicillin-sensitive Staphylococcus aureus ATCC 29213. The data set is classed as functional.
In data set [23] the target is T1, Cell division protein FtsZ. The data set is described as follows: Inhibition of Escherichia coli FtsZ polymerization.
In data set [24] the test system is Enterococcus faecalis. Put plainly: Antimicrobial activity against Enterococcus faecalis. In kind it is functional.
Data set [25] deals with Enterococcus faecium. Put plainly: Antimicrobial activity against Enterococcus faecium. In kind it is functional.
For data set [26], the system named is Staphylococcus aureus. The data set is described as follows: Antimicrobial activity against Staphylococcus aureus UAMS1. The data set is classed as functional.
The subject of data set [27] is Staphylococcus aureus. The data set is described as follows: Antimicrobial activity against community acquired methicillin-resistant Staphylococcus aureus USA300-LAC. The data set is classed as functional.
The target in data set [28] is T1, Cell division protein FtsZ. The data set is described as follows: Binding affinity to Escherichia coli FtsZ by fluorescence anisotrophy.

≈ marks a conversion by molar mass, not a printed value.

Take `NC(=O)c1c(F)ccc(OCc2nc3cc(Cl)cnc3s2)c1F`: 0.5 µg/mL (≈ 1.41 µM) was the least that counted as inhibitory in data set [1] (MIC).
In the case of `O=C1C[C@@H](c2ccccc2)Oc2c(Cc3cc(Cc4ccccc4O)ccc3O)c(O)c(Cc3cc(Cc4ccccc4O)ccc3O)c(O)c21`, the MIC in data set [2] was found to be 1.77 µg/mL (≈ 2.6 µM); in data set [4] it was 1.16 µg/mL (≈ 1.7 µM). For the same compound, the IC50 in data set [3] is 8.3 µM.
In the case of `CCC(CC)c1cc([C@H]2CN3CC[C@H]2C[C@@H]3CNCc2ccco2)nc(-c2ccncc2)n1`, the IC50 in [5] was 55.7 µM. The minimum inhibitory concentration (MIC) in data set [4] came to 12 µg/mL (≈ 26.9 µM); in [6] it was 72 µg/mL (≈ 162 µM).
As to `CN1CCC(C(=O)NC(=O)c2c(F)ccc(OCc3nc4cc(Cl)cnc4s3)c2F)CC1`, the half-life was 3.4 min in [7] and 8.2 h in data set [8].
In turn, `O=C1NC(=S)S/C1=C/c1ccc(-c2cccc(C(F)(F)F)c2)o1` yielded a GI50 in data set [2] of 2 µM. Besides, the affinity in [9], expressed as Kd, was 1.5 µM. In [10], this compound returned a concentration for half-maximal inhibition (IC50) of 18.1 µM.
In data set [1], `NC(=O)c1c(F)ccc(O[C@H](CO)c2nc(-c3ccc(C(F)(F)F)cc3)c(Br)o2)c1F` showed an MIC of 0.12 µg/mL (≈ 0.237 µM). Further, the Ratio in data set [11] came to 4.
As for `O=C(Oc1cc(OC(=O)c2ccc(O)c(Cl)c2)c2ccccc2c1)c1ccc(O)c(Cl)c1`, the MIC came to 32 µg/mL (≈ 68.2 µM) in [12]; 64 µg/mL (≈ 136 µM) in data set [14]; 128 µg/mL (≈ 273 µM) in data set [15]; 4 µg/mL (≈ 8.52 µM) in data set [16]; 32 µg/mL (≈ 68.2 µM) in data set [17]; 2 µg/mL (≈ 4.26 µM) in data set [18]. In addition, the minimal inhibitory concentration (MIC) stood at 128 µg/mL (≈ 273 µM) in [19], 128 µg/mL (≈ 273 µM) in data set [20], 4 µg/mL (≈ 8.52 µM) in data set [21] and 8 µg/mL (≈ 17 µM) in [22]. Moreover, in data set [13], the Ratio worked out at 5.
For the compound `CCC(CC)c1cc([C@H]2CN3CC[C@H]2C[C@@H]3CNCc2ccc(CO)o2)nc(-c2ccncc2)n1`, the IC50 in data set [5] is 73.2 µM. For the same compound, the MIC in data set [4] came out at 24 µg/mL (≈ 50.5 µM); in data set [6], 36 µg/mL (≈ 75.7 µM).
On to `COC(=O)CC1Cc2cc3cc(OC)c(-c4c(OC)cc5cc6c(c(O)c5c4O)C(=O)OC(CC(=O)OC)C6)c(O)c3c(O)c2C(=O)O1` (stereo not given) [VIRIDITOXIN], for which the IC50 is 12.4 µM in [23] and 10.6 µM in [3]. In addition, the MIC in data set [24] stood at 2 µg/mL (≈ 3.02 µM); in data set [4] it was 4 µg/mL (≈ 6.04 µM); in data set [25], 2 µg/mL (≈ 3.02 µM).
With `COc1cc(C/C=C(/Cl)Cc2cc(O)cc(O)c2)c(OC)cc1Cl`, the minimum inhibitory concentration (MIC) in data set [26] and in data set [27] was 1 µg/mL (≈ 2.71 µM) in each case. This compound returned an IC50 in data set [3] of 37 µM.
In the case of `N=C(N)c1ccc(-c2cc3ccc(C(=N)N)cc3[nH]2)cc1` [DAPI], in data set [28], binding was characterised by a dissociation constant (Kd) of 16.6 µM.
In the case of `Cc1nc(-c2cccs2)cc([C@H]2CN3CC[C@H]2C[C@@H]3CNC(=O)CCCC(=O)O)n1`, in data set [5], the 50% inhibitory concentration (IC50) is 317 µM. In addition, the minimal inhibitory concentration (MIC) worked out at 384 µg/mL (≈ 897 µM) in [4] and 192 µg/mL (≈ 449 µM) in data set [6].
